Results as given in PubChem BioAssay (NCI).
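Following 48 hours of exposure in 96-well plates, responses at five concentrations were used to interpolate endpoints linearly. At the TGI there is no net growth.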

Assays:
Experiment in all cases: DTP human tumour cell line panel, 48 h
K-562 leukemia = test system: K-562 leukemia
SN12C renal = test system: SN12C renal
NCI-H522 lung = test system: NCI-H522 lung
A498 renal = test system: A498 renal
OVCAR-4 ovarian = test system: OVCAR-4 ovarian
SK-MEL-5 melanoma = test system: SK-MEL-5 melanoma
UO-31 renal = test system: UO-31 renal
A549 NSCLC = test system: A549 NSCLC
SF-295 CNS = test system: SF-295 CNS
NCI-H460 lung = test system: NCI-H460 lung
KM12 colon = test system: KM12 colon
DMS 273 small cell lung = test system: DMS 273 small cell lung
HCC-2998 colon = test system: HCC-2998 colon
DMS 114 small cell lung = test system: DMS 114 small cell lung
MALME-3M melanoma = test system: MALME-3M melanoma
SW-620 colon = test system: SW-620 colon
HCT-116 colon = test system: HCT-116 colon
HOP-18 NSCLC = test system: HOP-18 NSCLC
NCI-H226 lung = test system: NCI-H226 lung
SR leukemia = test system: SR leukemia
NCI-H23 lung = test system: NCI-H23 lung
SNB-19 CNS = test system: SNB-19 CNS
U251 CNS = test system: U251 CNS
SK-MEL-28 melanoma = test system: SK-MEL-28 melanoma
OVCAR-8 ovarian = test system: OVCAR-8 ovarian
XF 498 CNS = test system: XF 498 CNS
TK-10 renal = test system: TK-10 renal
OVCAR-3 ovarian = test system: OVCAR-3 ovarian
HOP-62 NSCLC = test system: HOP-62 NSCLC
KM20L2 colon = test system: KM20L2 colon
LXFL 529 NSCLC = test system: LXFL 529 NSCLC
UACC-257 melanoma = test system: UACC-257 melanoma
MOLT-4 leukemia = test system: MOLT-4 leukemia
UACC-62 melanoma = test system: UACC-62 melanoma
HL-60(TB) leukemia = test system: HL-60(TB) leukemia
SNB-78 CNS = test system: SNB-78 CNS
786-0 renal = test system: 786-0 renal
SK-OV-3 ovarian = test system: SK-OV-3 ovarian
RPMI-8226 leukemia = test system: RPMI-8226 leukemia
SNB-75 CNS = test system: SNB-75 CNS
SK-MEL-2 melanoma = test system: SK-MEL-2 melanoma
COLO 205 colon = test system: COLO 205 colon
SF-268 CNS = test system: SF-268 CNS
EKVX NSCLC = test system: EKVX NSCLC
HT29 colon = test system: HT29 colon
CAKI-1 renal = test system: CAKI-1 renal
CCRF-CEM leukemia = test system: CCRF-CEM leukemia
ACHN renal = test system: ACHN renal
LOX IMVI melanoma = test system: LOX IMVI melanoma
M14 melanoma = test system: M14 melanoma
OVCAR-5 ovarian = test system: OVCAR-5 ovarian
SF-539 CNS = test system: SF-539 CNS
IGROV1 ovarian = test system: IGROV1 ovarian
RXF-631 renal = test system: RXF-631 renal
M19-MEL melanoma = test system: M19-MEL melanoma
DLD-1 colon = test system: DLD-1 colon
RXF 393 renal = test system: RXF 393 renal
HOP-92 NSCLC = test system: HOP-92 NSCLC

Measured: TGI

COC(=O)C1CCC2(CC1)NC(=O)NC2=O (stereo not drawn)
> 100 µM: all assays above
